Test results reported in patent publication US4416885A, “Use of isopropylaminopyrimidine in the chemotherapy of muscular dystrophy, myopathy and myotonia” (priority 1982, dated 1983).

Experiments:
[1] = tested on: dystrophic New Hampshire chickens, line 413; assay: Toxicity (weight change, other symptoms) in dystrophic chickens; assay type: in vivo, chicken
[2] = tested on: dystrophic New Hampshire chickens, line 413; assay: Flip test (flip number FN, out of five attempts); assay type: in vivo, chicken
Experimental: The compound IAPP was tested on dystrophic New Hampshire chickens, line 413, and Imperial College (London, England) sub-line of the original Davis, University of California strain. The chickens are homozygous for muscular dystrophy, the disease appearing with 100% incidence.
The animal is placed on its back in the supine position. The number of times it is able to rise, out of five attempts, is known as the flip number (FN). The normal chicken invariably scores 5 (out of 5 attempts), whereas in an untreated dystrophic chicken, the number declines to zero in 6-8 weeks. The test is performed once every […], seven days; more frequent assessment introduces an exercise factor and is not recommended.
(§1) The drug was administered daily in water, injected intra-peritoneally, the amount being adjusted on a weekly basis according to the animal's weight.
Finally, oral therapy with IAPP was undertaken at gradually increasing dosages up to 1 g/Kg/day. The parameters (physical, biochemical and histological) measured previously were again used to test the efficacy of the drug; five different dosages were used orally, each being given for 30-60 days, daily (Tables VII-XI). A total of 75 animals were treated in the current study with IAPP and 70 control animals were used.

[3] = tested on: plasma PK (pyruvate kinase); assay: Plasma PK; assay type: in vivo, chicken; conditions: 300 mg/Kg i.p. three times weekly for 30 days, day 28 ex ovo
Dystrophic monocytes = assay: Effect on human monocytes in culture (flat cells), dystrophic; assay type: cell-based; conditions: dystrophic monocytes + IAPP, six individuals, cultured 5-7 days; without IAPP 36.2%; preliminary
[4] = tested on: 413 dystrophic skeletal explants; assay: Effect on dystrophic skeletal explants in cell culture (microtubules); assay type: cell-based, chicken; conditions: upon incubation in IAPP, 0.5 mg/ml; skeletal and cardiac explants
Experimental: In these experiments 2-week and 3-week normal and dystrophic chickens (that had no previous injections with IAPP) were sacrificed and skeletal and cardiac explants were placed in culture with 0.5 mg/ml IAPP added. The pooled results of these experiments are as follows: […]

[5] = tested on: dystrophic New Hampshire chickens, line 413; assay: Toxicity (weight change, other symptoms) in dystrophic chickens; assay type: in vivo, chicken; remark: listed apart in the source
Experimental: Weight measurements are taken weekly, weight loss, diarrhea or any other symptoms are noted. No drugs have yet been described for dystrophy with a beneficial effect without an accompanying weight loss.
as §1

dystrophic chickens 413 = assay: Experiment 4, weight of dystrophic chickens injected with IAPP; assay type: in vivo, chicken; conditions: for Weight: 50 mg/Kg
Experimental: All chickens were injected with 50 mg/Kg IAPP and weighed approximately every second or third day.
A: Control-injected with PBS
B, C, D: Experimental-injected with 50 mg/Kg IAPP

CC(C)Nc1ncccn1.O=P(O)(O)O [IAPP, 2-isopropylaminopyrimidine orthophosphate]
Maximum Weight Loss ([1]; 300 mg/Kg i.p. three times weekly for 30 days): 17% | Weight loss / toxic symptoms ([1]; initial single injection 50 mg/Kg, over 7 days): no weight loss over 7 days, nor any other toxic symptoms | Maximum Weight Loss ([1]; oral 600 mg/Kg daily): 4% | Maximum weight loss, reduction from control values ([1]; oral therapy, all doses): 7% | FN (out of 5 attempts), treated ([2]; 200 mg/Kg i.p. daily for 30 days, day 28 ex ovo, control 4.9): 5.0 | FN (out of 5 attempts), treated ([2]; 200 mg/Kg i.p. daily for 30 days, day 45 ex ovo, control 3.5): 3.3 | FN (out of 5 attempts), treated ([2]; 200 mg/Kg i.p. daily for 30 days, day 84 ex ovo, control 0.7): 1.4 | Mean flip number ([2]; 200 mg/Kg i.p., further 56 days after injections ceased): slightly improved | FN (out of 5 attempts), treated ([2]; 300 mg/Kg i.p. daily for 30 days, day 28 ex ovo, control 4.9): 4.5 | FN (out of 5 attempts), treated ([2]; 300 mg/Kg i.p. daily for 30 days, day 45 ex ovo, control 3.5): 2.3 | FN (out of 5 attempts), treated ([2]; 300 mg/Kg i.p. daily for 30 days, day 84 ex ovo, control 0.7): 0.1 | FN (out of 5 attempts), treated ([2]; 300 mg/Kg i.p. three times weekly for 30 days, day 28 ex ovo, control 4.9): 4.5 | FN (out of 5 attempts), treated ([2]; 300 mg/Kg i.p. three times weekly for 30 days, day 45 ex ovo, control 3.5): 2.7 | FN (out of 5 attempts), treated ([2]; 300 mg/Kg i.p. three times weekly for 30 days, day 84 ex ovo, control 0.7): 0.6 | FN Treated (out of 5 attempts) ([2]; Exp. 2, 40 mg/Kg i.p. daily, day 7-13, control 4.5): 4.9 | FN Treated (out of 5 attempts) ([2]; Exp. 2, 40 mg/Kg i.p. daily, day 14-20, control 4.8): 5.0 | FN Treated (out of 5 attempts) ([2]; Exp. 2, 40 mg/Kg i.p. daily, day 35-41, control 2.8): 5.0 | FN Treated (out of 5 attempts) ([2]; Exp. 2, 40 mg/Kg i.p. daily, day 49-55, control 2.0): 4.5 | FN Treated (out of 5 attempts) ([2]; Exp. 2, 40 mg/Kg i.p. daily, day 56-62, control 1.4): 3.8 | FN Treated (out of 5 attempts) ([2]; Exp. 2, 40 mg/Kg i.p. daily, day 63-71, control 0.9): 2.3 | FN Treated (out of 5 attempts) ([2]; Exp. 3, 70 mg/Kg i.p. daily, day 14-20, control 5): 5 | FN Treated (out of 5 attempts) ([2]; Exp. 3, 70 mg/Kg i.p. daily, day 21-27, control 4.8): 5 | FN Treated (out of 5 attempts) ([2]; Exp. 3, 70 mg/Kg i.p. daily, day 28-34, control 5): 5 | FN (out of 5 attempts), treated ([2]; Table VII, oral 200 mg/Kg, 60 days, day 28 ex ovo, control 5.0): 4.1 | FN (out of 5 attempts), treated ([2]; Table VII, oral 200 mg/Kg, 60 days, day 35 ex ovo, control 4.4): 3.6 | FN (out of 5 attempts), treated ([2]; Table VII, oral 200 mg/Kg, 60 days, day 45 ex ovo, control 3.2): 2.4 | FN (out of 5 attempts), treated ([2]; Table VII, oral 200 mg/Kg, 60 days, day 60 ex ovo, control 2.8): 1.8 | FN (out of 5 attempts), treated ([2]; oral 300 mg/Kg daily, day 28 ex ovo, control 4.8): 4.7 | FN (out of 5 attempts), treated ([2]; oral 300 mg/Kg daily, day 35 ex ovo, control 4.7): 4.4 | FN (out of 5 attempts), treated ([2]; oral 450 mg/Kg daily for 45 days, day 28 ex ovo, control 5.0): 5.0 | FN (out of 5 attempts), treated ([2]; oral 450 mg/Kg daily for 45 days, day 35 ex ovo, control 3.6): 4.8 | FN (out of 5 attempts), treated ([2]; oral 450 mg/Kg daily for 45 days, day 45 ex ovo, control 1.7): 2 | FN (out of 5 attempts), treated ([2]; oral 450 mg/Kg daily for 45 days, day 50 ex ovo, control 1.4): 1 | FN (out of 5 attempts), treated ([2]; oral 600 mg/Kg daily, day 28 ex ovo, control 5.0): 5.0 | FN (out of 5 attempts), treated ([2]; oral 600 mg/Kg daily, day 35 ex ovo, control 3.6): 4.3 | FN (out of 5 attempts), treated ([2]; oral 600 mg/Kg daily, day 45 ex ovo, control 1.7): 2.7 | FN (out of 5 attempts), treated ([2]; oral 600 mg/Kg daily, day 50 ex ovo, control 1.4): 2.3 | FN (out of 5 attempts), treated ([2]; oral 1 g/Kg daily, day 28 ex ovo, control 1.7): 3.5 | Birds able to rise from supine 5 times out of 5 attempts ([2]; oral 1 g/Kg daily, first four weeks, dystrophic controls 20%): Fifty | PK [3]: 499 | % Flat Cells (Dystrophic monocytes): 45.1% | Staining of microtubules in dystrophic cells in culture [4]: appears to normalize upon incubation in IAPP | Weight loss (after 30 days' treatment) ([5]; 200 mg/Kg i.p. daily, level at which it became significant): twenty | % Weight Change vs untreated dystrophic controls ([5]; Exp. 2, 40 mg/Kg i.p. daily, day 7-13): -0.04% | % Weight Change vs untreated dystrophic controls ([5]; Exp. 2, 40 mg/Kg i.p. daily, day 14-20): -0.07% | % Weight Change vs untreated dystrophic controls ([5]; Exp. 2, 40 mg/Kg i.p. daily, day 21-27): -0.07% | % Weight Change vs untreated dystrophic controls ([5]; Exp. 2, 40 mg/Kg i.p. daily, day 28-34): -0.15% | % Weight Change vs untreated dystrophic controls ([5]; Exp. 2, 40 mg/Kg i.p. daily, day 35-41): -0.08% | % Weight Change vs untreated dystrophic controls ([5]; Exp. 2, 40 mg/Kg i.p. daily, day 42-48): -0.04% | % Weight Change vs untreated dystrophic controls ([5]; Exp. 2, 40 mg/Kg i.p. daily, day 49-55): -0.04% | % Weight Change vs untreated dystrophic controls ([5]; Exp. 2, 40 mg/Kg i.p. daily, day 56-62): -0.05% | % Weight Change vs untreated dystrophic controls ([5]; Exp. 2, 40 mg/Kg i.p. daily, day 63-71): -0.01% | Toxicity as evidenced by weight loss ([5]; Exp. 3, 70 mg/Kg): detectable toxicity as evidenced by weight loss, but this is still moderate | % Weight Change vs untreated dystrophic controls ([5]; Exp. 3, 70 mg/Kg i.p. daily, day 7-13): 0% | % Weight Change vs untreated dystrophic controls ([5]; Exp. 3, 70 mg/Kg i.p. daily, day 14-20): -2% | % Weight Change vs untreated dystrophic controls ([5]; Exp. 3, 70 mg/Kg i.p. daily, day 21-27): -3% | % Weight Change vs untreated dystrophic controls ([5]; Exp. 3, 70 mg/Kg i.p. daily, day 28-34): -9% | Maximum Weight Loss ([5]; Table VII, oral 200 mg/Kg, 60 days): 3% | Weight loss / toxic symptoms ([5]; initial single injection 100 mg/Kg, over 7 days): no weight loss over 7 days, nor any other toxic symptoms | Toxic side effect (dystrophic chickens 413; Exp. 4, 50 mg/Kg injected, normal and dystrophic chickens): There did not appear to be a toxic side effect | Weight (dystrophic chickens 413; Exp. 4, 413B, day 1): 48.3 GRAMS | Weight (dystrophic chickens 413; Exp. 4, 413B, day 4): 51.2 GRAMS | Weight (dystrophic chickens 413; Exp. 4, 413B, day 7): 56.7 GRAMS | Weight (dystrophic chickens 413; Exp. 4, 413B, day 9): 58.1 GRAMS | Weight (dystrophic chickens 413; Exp. 4, 413C, day 1): 36.9 GRAMS | Weight (dystrophic chickens 413; Exp. 4, 413C, day 4): 44.4 GRAMS | Weight (dystrophic chickens 413; Exp. 4, 413C, day 7): 49.9 GRAMS | Weight (dystrophic chickens 413; Exp. 4, 413C, day 9): 45.2 GRAMS | Weight (dystrophic chickens 413; Exp. 4, 413C, day 11): 53.2 GRAMS | Weight (dystrophic chickens 413; Exp. 4, 413C, day 14): 77.4 GRAMS | Weight (dystrophic chickens 413; Exp. 4, 413C, day 16): 90.5 GRAMS | Weight (dystrophic chickens 413; Exp. 4, 413C, day 17): 104.8 GRAMS | Weight (dystrophic chickens 413; Exp. 4, 413D, day 1): 44.5 GRAMS | Weight (dystrophic chickens 413; Exp. 4, 413D, day 4): 51.2 GRAMS | Weight (dystrophic chickens 413; Exp. 4, 413D, day 7): 59.8 GRAMS | Weight (dystrophic chickens 413; Exp. 4, 413D, day 9): 56.5 GRAMS | Weight (dystrophic chickens 413; Exp. 4, 413D, day 11): 65.4 GRAMS | Weight (dystrophic chickens 413; Exp. 4, 413D, day 14): 93.7 GRAMS | Weight (dystrophic chickens 413; Exp. 4, 413D, day 16): 115.1 GRAMS | Weight (dystrophic chickens 413; Exp. 4, 413D, day 20): 161.3 GRAMS | Weight (dystrophic chickens 413; Exp. 4, 413D, day 22): 210.2 GRAMS | Weight (dystrophic chickens 413; Exp. 4, 413D, day 25): 240.7 GRAMS
